Assay results taken from US10080366B2, “Agent for increasing sugar content in fruit” (RIKEN, priority 2012, dated 2018).
Where two headings read alike, the source gives them in different places.

System: fruit of grape in a farm field
Procedure: To the fruit of grape in a farm field before harvest, potassium hydrogen carbonate diluted with water to a concentration of 10 g/L (Table 17) or 20 g/L (Table 18) was applied three times in total at intervals of 7 days. The grape was harvested 21 days after the first application, and the masses of amino acids contained in each of the fruit of grape treated with potassium hydrogen carbonate and untreated fruit of grape were measured. In addition, the degree of increase in the concentration of each amino acid in the grape treated with potassium hydrogen carbonate in comparison with the concentration of the amino acid in the untreated grape was determined as a ratio of “the concentration of the amino acid in the grape treated with potassium hydrogen carbonate/the concentration of the amino acid in the untreated grape.” Moreover, the sugar contents in the grape treated with potassium hydrogen carbonate and the untreated grape were also measured, and the ratio (the sugar content in the grape treated with potassium hydrogen carbonate/the sugar content in the untreated grape) was determined.
Arg: arginine, GluNH2: glutamine, Orn: ornithine, Ala: alanine, NH3: ammonia, Cit: citrulline, AspNH2: asparagine, a-ABA: α-amino-n-butyric acid, Glu: glutamic acid, Asp: aspartic acid, Thr: threonine, Ser: serine, Lys: lysine, His: histidine, Gly: glycine, Phe: phenylalanine, Sar: sarcosine, Val: valine, Cys: cysteine, b-AiBA: β-aminoisobutyric acid, PEA: phosphoethanolamine, a-AAA: α-aminoadipic acid, EOHNH2: ethanolamine, b-Ala: β-alanine, Leu: leucine, g-ABA: […], Ile: isoleucine, Met: methionine, Urea: urea, Trp: tryptophan, Tyr: tyrosine, and Cysthi: cystathionine.

O=C([O-])O.[K+] [Potassium hydrogen carbonate, potassium hydrogen carbonate]
Ala, Ratio treated/untreated (10 g/L x3): 5.229
Ala, Treated Mass (10 g/L x3): 601.952 ng
Arg, Ratio treated/untreated (10 g/L x3): 10.658
Asp, Ratio treated/untreated (10 g/L x3): 2.694
Asp, Treated Mass (10 g/L x3): 89.293 ng
AspNH2, Ratio treated/untreated (10 g/L x3): 3.987
AspNH2, Treated Mass (10 g/L x3): 14.746 ng
Cit, Ratio treated/untreated (10 g/L x3): 4.673
Cit, Treated Mass (10 g/L x3): 11.464 ng
Cys, Ratio treated/untreated (10 g/L x3): 1.154
Cys, Treated Mass (10 g/L x3): 117.021 ng
Cysthi, Ratio treated/untreated (10 g/L x3): 0.457
Cysthi, Treated Mass (10 g/L x3): 1.016 ng
EOHNH2, Ratio treated/untreated (10 g/L x3): 1.02
EOHNH2, Treated Mass (10 g/L x3): 53.297 ng
Glu, Ratio treated/untreated (10 g/L x3): 2.915
Glu, Treated Mass (10 g/L x3): 1091.265 ng
GluNH2, Ratio treated/untreated (10 g/L x3): 7.046
GluNH2, Treated Mass (10 g/L x3): 347.152 ng
Gly, Ratio treated/untreated (10 g/L x3): 1.553
Gly, Treated Mass (10 g/L x3): 25.939 ng
His, Ratio treated/untreated (10 g/L x3): 1.615
His, Treated Mass (10 g/L x3): 96.252 ng
Ile, Ratio treated/untreated (10 g/L x3): 0.875
Ile, Treated Mass (10 g/L x3): 72.435 ng
Leu, Ratio treated/untreated (10 g/L x3): 1.012
Leu, Treated Mass (10 g/L x3): 110.503 ng
Lys, Ratio treated/untreated (10 g/L x3): 1.768
Lys, Treated Mass (10 g/L x3): 18.865 ng
Met, Ratio treated/untreated (10 g/L x3): 0.839
Met, Treated Mass (10 g/L x3): 6.131 ng
NH3, Ratio treated/untreated (10 g/L x3): 4.713
NH3, Treated Mass (10 g/L x3): 438.689 ng
Orn, Ratio treated/untreated (10 g/L x3): 6.692
Orn, Treated Mass (10 g/L x3): 23.882 ng
PEA, Ratio treated/untreated (10 g/L x3): 1.032
PEA, Treated Mass (10 g/L x3): 87.942 ng
Phe, Ratio treated/untreated (10 g/L x3): 1.527
Phe, Treated Mass (10 g/L x3): 51.201 ng
Sar, Ratio treated/untreated (10 g/L x3): 1.271
Sar, Treated Mass (10 g/L x3): 62.178 ng
Ser, Ratio treated/untreated (10 g/L x3): 2.585
Ser, Treated Mass (10 g/L x3): 360.511 ng
Sugar content, Ratio treated/untreated (10 g/L x3): 1.06
Sugar content, Treated (10 g/L x3): 22.6%
Thr, Ratio treated/untreated (10 g/L x3): 2.615
Thr, Treated Mass (10 g/L x3): 342.259 ng
Total, Ratio treated/untreated (10 g/L x3): 2.203
Total, Treated Mass (10 g/L x3): 1082.09 ng
Trp, Ratio treated/untreated (10 g/L x3): 0.641
Trp, Treated Mass (10 g/L x3): 4.840 ng
Tyr, Ratio treated/untreated (10 g/L x3): 0.59
Tyr, Treated Mass (10 g/L x3): 17.739 ng
Urea, Ratio treated/untreated (10 g/L x3): 0.757
Urea, Treated Mass (10 g/L x3): 105.062 ng
Val, Ratio treated/untreated (10 g/L x3): 1.256
Val, Treated Mass (10 g/L x3): 191.700 ng
a-AAA, Ratio treated/untreated (10 g/L x3): 1.031
a-AAA, Treated Mass (10 g/L x3): 3.261 ng
a-ABA, Ratio treated/untreated (10 g/L x3): 3.246
a-ABA, Treated Mass (10 g/L x3): 9.038 ng
b-AiBA, Ratio treated/untreated (10 g/L x3): 1.129
b-AiBA, Treated Mass (10 g/L x3): 9.663 ng
b-Ala, Ratio treated/untreated (10 g/L x3): 1.019
b-Ala, Treated Mass (10 g/L x3): 197.064 ng
g-ABA, Ratio treated/untreated (10 g/L x3): 0.891
g-ABA, Treated Mass (10 g/L x3): 637.915 ng
Arg, Treated Mass (10 g/L x3, harvest 21 days after first application): 1383.991 ng
1Mehis, Ratio treated/untreated (20 g/L x3): 1.167
1Mehis, Treated Mass (20 g/L x3): 1.184 ng
Ala, Ratio treated/untreated (20 g/L x3): 6.161
Ala, Treated Mass (20 g/L x3): 709.236 ng
Arg, Ratio treated/untreated (20 g/L x3): 15.532
Asp, Ratio treated/untreated (20 g/L x3): 2.614
Asp, Treated Mass (20 g/L x3): 86.648 ng
AspNH2, Ratio treated/untreated (20 g/L x3): 7.214
AspNH2, Treated Mass (20 g/L x3): 26.684 ng
Cit, Ratio treated/untreated (20 g/L x3): 12.285
Cit, Treated Mass (20 g/L x3): 30.134 ng
Cys, Ratio treated/untreated (20 g/L x3): 1.41
Cys, Treated Mass (20 g/L x3): 142.979 ng
Cysthi, Ratio treated/untreated (20 g/L x3): 0.3
Cysthi, Treated Mass (20 g/L x3): 0.667 ng
EOHNH2, Ratio treated/untreated (20 g/L x3): 1.164
EOHNH2, Treated Mass (20 g/L x3): 76.497 ng
Glu, Ratio treated/untreated (20 g/L x3): 1.85
Glu, Treated Mass (20 g/L x3): 693.282 ng
GluNH2, Ratio treated/untreated (20 g/L x3): 11.395
GluNH2, Treated Mass (20 g/L x3): 561.408 ng
Gly, Ratio treated/untreated (20 g/L x3): 1.847
Gly, Treated Mass (20 g/L x3): 34.546 ng
His, Ratio treated/untreated (20 g/L x3): 2.312
His, Treated Mass (20 g/L x3): 137.818 ng
Ile, Ratio treated/untreated (20 g/L x3): 1.149
Ile, Treated Mass (20 g/L x3): 95.120 ng
Leu, Ratio treated/untreated (20 g/L x3): 1.387
Leu, Treated Mass (20 g/L x3): 151.405 ng
Lys, Ratio treated/untreated (20 g/L x3): 2.452
Lys, Treated Mass (20 g/L x3): 26.170 ng
Met, Ratio treated/untreated (20 g/L x3): 1.325
Met, Treated Mass (20 g/L x3): 9.698 ng
NH3, Ratio treated/untreated (20 g/L x3): 4.845
NH3, Treated Mass (20 g/L x3): 450.976 ng
Orn, Ratio treated/untreated (20 g/L x3): 11.668
Orn, Treated Mass (20 g/L x3): 41.643 ng
PEA, Ratio treated/untreated (20 g/L x3): 1.644
PEA, Treated Mass (20 g/L x3): 140.112 ng
Phe, Ratio treated/untreated (20 g/L x3): 1.961
Phe, Treated Mass (20 g/L x3): 65.750 ng
Sar, Ratio treated/untreated (20 g/L x3): 1.5191
Sar, Treated Mass (20 g/L x3): 74.309 ng
Ser, Ratio treated/untreated (20 g/L x3): 3.553
Ser, Treated Mass (20 g/L x3): 495.547 ng
Sugar content, Ratio treated/untreated (20 g/L x3): 1.24
Sugar content, Treated (20 g/L x3): 25.9%
Thr, Ratio treated/untreated (20 g/L x3): 3.174
Thr, Treated Mass (20 g/L x3): 415.421 ng
Total, Ratio treated/untreated (20 g/L x3): 2.525
Total, Treated Mass (20 g/L x3): 1239.923 ng
Trp, Ratio treated/untreated (20 g/L x3): 0.973
Trp, Treated Mass (20 g/L x3): 7.348 ng
Tyr, Ratio treated/untreated (20 g/L x3): 0.994
Tyr, Treated Mass (20 g/L x3): 29.898 ng
Val, Ratio treated/untreated (20 g/L x3): 1.587
Val, Treated Mass (20 g/L x3): 242.163 ng
a-AAA, Ratio treated/untreated (20 g/L x3): 1.408
a-AAA, Treated Mass (20 g/L x3): 4.352 ng
a-ABA, Ratio treated/untreated (20 g/L x3): 3.555
a-ABA, Treated Mass (20 g/L x3): 9.898 ng
b-AiBA, Ratio treated/untreated (20 g/L x3): 1.12
b-AiBA, Treated Mass (20 g/L x3): 9.588 ng
b-Ala, Ratio treated/untreated (20 g/L x3): 1.202
b-Ala, Treated Mass (20 g/L x3): 232.373 ng
g-ABA, Ratio treated/untreated (20 g/L x3): 1.811
g-ABA, Treated Mass (20 g/L x3): 1298.441 ng
Arg, Treated Mass (20 g/L x3, harvest 21 days after first application): 2018.4554 ng
